In paper PMC5428521, “Identification of a Novel, Small Molecule Partial Agonist for the Cyclic AMP Sensor, EPAC1” (Scientific Reports, 2017):
Where two headings read alike, the source gives them in different places.

What was measured:
EPAC1-CNB [1] = target: T1, EPAC1-CNB (Homo sapiens, UniProt O95398); details: published Kd values shown for comparison; cited from earlier work
T1 construct: EPAC1-CNB (amino acids 169–318 of EPAC1); made in house; host or cells: BL-21 Escherichia coli (pGEX-6P-1)
T1 sequence (O95398 169-318 isoform O95398-3): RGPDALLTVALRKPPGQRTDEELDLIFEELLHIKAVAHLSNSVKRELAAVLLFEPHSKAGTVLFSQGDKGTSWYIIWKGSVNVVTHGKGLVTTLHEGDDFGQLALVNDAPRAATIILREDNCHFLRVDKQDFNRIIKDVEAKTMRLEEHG

EPAC1-CNB [2] = target: T1, EPAC1-CNB; test: 8-NBD-cAMP competition assay with EPAC1-CNB; assay type: binding
Procedure: Optimisation of assay conditions was performed in 96 well black assay plates (Greiner). Comparison of reference molecules, dose response curves and pilot screen were done in black, low volume 384 assay plates (Greiner). Liquids were dispensed using a Biomek Fx laboratory automation workstation with a 96-multichannel pipetting head (Beckman Coulter) for optimisation, whereas the Echo® Liquid Handler (Labcyte) and Wellmate automated dispenser (Thermo Matrix) were employed for pilot screens (see library screening).
This was done using the optimised assay conditions developed during the study. Library compounds were transferred from pre-prepared, 1000x stock Echo® 384 LDV source plates (Labcyte) into black, low volume 384 assay plates (Greiner) at 25 nl volumes, using an Echo® Liquid Handler (Labcyte), maintaining 0.1–1% DMSO throughout. EPAC1-CNB (0.8 µM) was immediately added using a Wellmate automated dispenser (Thermo Matrix). Plates were centrifuged at 800 rpm, 10 s, and then incubated for 30 minutes, RT, to promote compound-protein complex formation. […] The assay was incubated at room temperature and the fluorescence intensity at 480/535 nm (ex/em) was measured after 4–15 hours using the Envision plate reader.

EPAC2-CNB = target: T2, EPAC2-CNB (Mus musculus, UniProt Q9EQZ6); test: Ligand observed NMR (1D and waterLOGSY) with EPAC2-CNB; assay type: binding; details: compound 50 µM, protein 2.5 µM
T2 construct: EPAC2-CNB (amino acids 304–453 of EPAC2); made in house; host or cells: BL-21 Escherichia coli (pGEX-6P-1)
T2 sequence (Q9EQZ6 304-453 isoform Q9EQZ6-3): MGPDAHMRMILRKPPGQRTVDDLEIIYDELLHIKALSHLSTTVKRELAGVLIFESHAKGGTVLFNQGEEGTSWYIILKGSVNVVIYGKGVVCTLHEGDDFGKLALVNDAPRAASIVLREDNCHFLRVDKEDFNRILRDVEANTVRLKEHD
Source text: (§1) Given that I942 seems to exert selective agonist properties against EPAC1, but not EPAC2, we next sought to validate whether our isolated ligands can interact with EPAC1 and EPAC2. Ligand observed nuclear magnetic resonance (NMR) is a valuable tool for the identification and validation of small molecule ligands. We therefore used one dimensional proton (1D) and water-ligand observed by gradient spectroscopy (waterLOGSY) NMR to confirm the ability of I942 and I178 to bind to the purified CNBs of EPAC1 and EPAC2, in comparison with the commercially available EPAC1 antagonist, ESI-09[32]. In order to assess ligand/CNB interaction, 1D and waterLOGSY experiments were performed on each compound (50 µM) in the presence or absence of 2.5 µM EPAC-CNB. In the absence of protein, each test compound produced a well-resolved 1D spectrum and a region of each spectrum was chosen to display distinctive spectral peaks originating from the ligand (Fig. 6). In the absence of protein, the corresponding waterLOGSY peaks were small, or absent, due to the negligible signal produced by saturation transfer from water to the freely tumbling small molecule. […] In waterLOGSY spectra, protein-mediated saturation transfer can only occur if the protein-ligand complex has a substantial lifetime. […]
(§2) (A) One dimensional proton (1D) and waterLOGSY (WL) spectra were performed on samples containing hit compound I942 (50 µM) in the absence and presence of EPAC1-CNB, EPAC2-CNB or GST alone, as indicated (2.5 µM). […] Interaction between compound and protein was assessed through comparison of the compound alone and protein-compound sample spectra. […]
(§3) All NMR spectra were recorded on a Bruker AVANCE IIIHD 600 spectrometer equipped with a TCI cryoprobe at 285 K. Test compounds were prepared in deuterated DMSO and diluted to given experimental concentrations in NMR buffer (20 mM Na2PO4, pH 7.0, 50 mM NaCl, 0.1% (w/v) NaN3, 5% (v/v) D2O) with a final DMSO concentration below 0.1%. […] One dimensional proton (1D) and waterLOGSY spectra were recorded for all compounds tested, using pulse sequences as previously described. […]

EPAC1-CNB [3] = target: T1, EPAC1-CNB; test: Ligand observed NMR (1D and waterLOGSY) with EPAC1-CNB; assay type: binding; details: compound 50 µM, protein 2.5 µM
Source text: as §1, §2, §3

GST = GST (Schistosoma japonicum, UniProt P08515); test: Ligand observed NMR (1D and waterLOGSY) with GST alone; assay type: binding; details: compound 50 µM, GST 2.5 µM
Source text: as §1, §2, §3

protein kinase A (PKA) = test: PKA kinase activity assay in HEK293T cell extracts; assay type: biochemical; details: 1 mM cAMP, compound 0.1 to 100 µM
Procedure: PKA activity was measured directly in cell extracts using the PKA Kinase Activity Assay Kit (Abcam) following the manufacturer's instructions. […] Cells were washed in ice-cold PBS containing phosphatase inhibitors, scrapped into Eppendorf tubes and centrifuged at 200 × g at 4 °C for 5 minutes. Supernatants were discarded and the cell pellet was re-suspended in Complete Lysis Buffer containing 1 mM DTT, 1 mM PMSF and protease inhibitor cocktail (Roche) and then incubated for 10 minutes on ice (on the rocking platform) followed by vortex and centrifugation at […] at 4 °C for 20 minutes. Cell extracts were then transferred to fresh Eppendorf tubes, assayed for protein content and then stored at -80 °C. […] Next, 10 μl of ATP was added to each well and incubated at 30 °C for 90 min, with gentle shaking. The reaction was stopped by aspirating the contents of each well and then 40 μl of PKA phosphospecific substrate antibody was added to each well and then the plate was covered with plastic wrap and incubated at room temperature for 60 min (with gentle shaking every 20 min). […] Fluorescence was then measured at 480/530 nm. […] PKA activity was then measured in the cell extracts using an ELISA assay according to the manufactures instructions. […]

[4] = target: T3, EPAC1 (amino acids 149–881) (Homo sapiens, UniProt O95398); test: In vitro GEF activity assay (MANT-GDP dissociation from Rap1), EPAC1; assay type: biochemical; details: 500 μM compound, 500 μM cAMP
T3 construct: recombinant EPAC1 (amino acids 149–881); made in house; host or cells: bacteria
T3 sequence (O95398 149-881 isoform O95398-3): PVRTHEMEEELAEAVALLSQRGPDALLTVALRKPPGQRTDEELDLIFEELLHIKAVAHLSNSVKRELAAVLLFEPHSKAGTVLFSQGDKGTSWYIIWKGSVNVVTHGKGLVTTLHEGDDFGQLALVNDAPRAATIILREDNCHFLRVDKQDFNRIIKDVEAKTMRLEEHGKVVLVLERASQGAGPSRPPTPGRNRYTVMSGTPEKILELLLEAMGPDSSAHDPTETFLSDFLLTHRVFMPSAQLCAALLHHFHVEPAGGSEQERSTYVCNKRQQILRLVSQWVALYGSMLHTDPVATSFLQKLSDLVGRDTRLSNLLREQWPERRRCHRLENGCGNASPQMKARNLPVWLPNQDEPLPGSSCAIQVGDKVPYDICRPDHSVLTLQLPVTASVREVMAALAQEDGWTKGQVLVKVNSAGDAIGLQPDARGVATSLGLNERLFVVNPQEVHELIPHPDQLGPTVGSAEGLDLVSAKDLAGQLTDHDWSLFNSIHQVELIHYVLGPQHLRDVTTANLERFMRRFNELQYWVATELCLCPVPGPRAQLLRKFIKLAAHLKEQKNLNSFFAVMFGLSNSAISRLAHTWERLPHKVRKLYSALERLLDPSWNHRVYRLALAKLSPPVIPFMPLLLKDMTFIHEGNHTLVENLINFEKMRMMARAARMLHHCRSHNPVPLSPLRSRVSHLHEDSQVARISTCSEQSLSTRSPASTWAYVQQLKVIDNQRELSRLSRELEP
Procedure: For this, we used the well-characterised EPAC GEF activity assay. The assay is based on the EPAC-stimulated dissociation of fluorescent MANT-GDP from recombinant Rap1 in the presence of excess non-fluorescent nucleotide.
The data are fitted as single exponential decay with off-set (red lines) to obtain the rate constants kobs, as shown in (b).
EPAC1 and EPAC2 in vitro GEF activities were calculated as previously described. Briefly, recombinant EPAC1 (amino acids 149–881) or EPAC2 (amino acids 280–993) were incubated at 100 nM with recombinant Rap1 (200 nM) preloaded with the fluorescent GDP analogue 2′/3′-O-(N-Methylanthraniloyl)guanosine 5-diphosphate (MANT-GDP) in the presence of 20 μM GDP and then the fluorescence intensity was measured at 360/450 nm (ex/em) over time. […] AC50 or IC50 values were determined from the plots of kobs against the concentration of the agonist and antagonist, respectively Table 1.

[5] = 8-NBD-cAMP 62.5 nM, EPAC1-CNB 0.8 µM, known competitor compounds, read-out: IC50, inhibition of 8-NBD-cAMP fluorescence
[6] = 7-point dose response, 75 µM top concentration, 0.75% DMSO, read-out: IC50, 8-NBD-cAMP binding assay

Sequence of GST (P08515 whole entry): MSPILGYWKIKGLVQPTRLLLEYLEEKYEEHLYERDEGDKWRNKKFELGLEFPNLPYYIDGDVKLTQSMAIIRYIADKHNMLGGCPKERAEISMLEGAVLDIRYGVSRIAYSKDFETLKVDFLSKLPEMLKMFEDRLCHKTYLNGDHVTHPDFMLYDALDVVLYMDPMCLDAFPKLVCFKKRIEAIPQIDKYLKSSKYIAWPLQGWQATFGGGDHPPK

For `Nc1ncnc2c1nc(Sc1ccc(Cl)cc1)n2[C@@H]1O[C@@H]2COP(=O)(O)O[C@H]2[C@H]1O` [8-CPT, 8-CPT-cAMP, reference compound], the Kd (EPAC1-CNB [1]) is listed as 40 nM and the IC50 (EPAC1-CNB [2]; [5]) is listed as 530 nM.

Work on “N-[(4-chlorophenyl)sulfonyl]-2-(1-naphthyloxy)acetamide [I288]” yielded an IC50 (EPAC1-CNB [2]; [6]) of ~70000 nM.

With `CC(C)(C)c1cc(C(=O)C(C#N)=NNc2cccc(Cl)c2)no1` [ESI-09, 3-(5-tert-butyl-isoxazol-3-yl)-2-[(3-chloro-phenyl)-hydrazonol]-3-oxo-propionitrile, reference compound] the NMR interaction (EPAC2-CNB) was “attenuated”, the NMR interaction (EPAC1-CNB [3]) was “attenuated” and the “NMR interaction with GST alone” value (GST) was “may interact non-specifically with GST”.

In the case of `CO[C@@H]1[C@@H]2OP(=O)(O)OC[C@H]2O[C@H]1n1c(Sc2ccc(Cl)cc2)nc2c(N)ncnc21` [compound 007, 8-pCPT-2′-O-Me-cAMP, reference compound], the Kd (EPAC1-CNB [1]) is listed as 630 nM and the IC50 (EPAC1-CNB [2]; [5]) is listed as 1670 nM.

With `O=S(=O)(NCCNC/C=C/c1ccc(Br)cc1)c1cccc2cnccc12` [H-89, reference compound] the “effect on PKA activity induced by cAMP” value (protein kinase A (PKA)) was “dose-dependent inhibition”.

In the case of `CC(=O)Nc1cccc(OCC(=O)NS(=O)(=O)c2ccc(C)cc2)c1` [I516, 2-[3-(acetylamino)phenoxy]-N-[(4-methylphenyl)sulfonyl]acetamide], the IC50 (EPAC1-CNB [2]; [6]) is reported as > 75000 nM and the “inhibition of cAMP-induced EPAC1 activity” value [4] is reported as “no detectable inhibitory effect”.
